From PubChem BioAssay (NCI)
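Five compound concentrations were applied to cells in 96-well plates for 48 hours; endpoints were derived by simple linear interpolation of the resulting dose-response curve. The concentration for full growth arrest is given as TGI.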

Experiments:
Test in all cases: DTP human tumour cell line panel, 48 h
HOP-92 NSCLC = system: HOP-92 NSCLC
ACHN renal = system: ACHN renal
SK-MEL-28 melanoma = system: SK-MEL-28 melanoma
M19-MEL melanoma = system: M19-MEL melanoma
A498 renal = system: A498 renal
SF-268 CNS = system: SF-268 CNS
SK-MEL-5 melanoma = system: SK-MEL-5 melanoma
MALME-3M melanoma = system: MALME-3M melanoma
SNB-19 CNS = system: SNB-19 CNS
SK-MEL-2 melanoma = system: SK-MEL-2 melanoma
RPMI-8226 leukemia = system: RPMI-8226 leukemia
RXF 393 renal = system: RXF 393 renal
HOP-62 NSCLC = system: HOP-62 NSCLC
U251 CNS = system: U251 CNS
CCRF-CEM leukemia = system: CCRF-CEM leukemia
CAKI-1 renal = system: CAKI-1 renal
KM12 colon = system: KM12 colon
K-562 leukemia = system: K-562 leukemia
XF 498 CNS = system: XF 498 CNS
SF-295 CNS = system: SF-295 CNS
OVCAR-4 ovarian = system: OVCAR-4 ovarian
786-0 renal = system: 786-0 renal
LOX IMVI melanoma = system: LOX IMVI melanoma
UACC-62 melanoma = system: UACC-62 melanoma
SNB-78 CNS = system: SNB-78 CNS
OVCAR-5 ovarian = system: OVCAR-5 ovarian
HCT-15 colon = system: HCT-15 colon
DMS 273 small cell lung = system: DMS 273 small cell lung
KM20L2 colon = system: KM20L2 colon
OVCAR-3 ovarian = system: OVCAR-3 ovarian
EKVX NSCLC = system: EKVX NSCLC
SNB-75 CNS = system: SNB-75 CNS
SR leukemia = system: SR leukemia
OVCAR-8 ovarian = system: OVCAR-8 ovarian
SN12C renal = system: SN12C renal
HT29 colon = system: HT29 colon
SW-620 colon = system: SW-620 colon
HOP-18 NSCLC = system: HOP-18 NSCLC
UACC-257 melanoma = system: UACC-257 melanoma
NCI-H460 lung = system: NCI-H460 lung
COLO 205 colon = system: COLO 205 colon
SF-539 CNS = system: SF-539 CNS
TK-10 renal = system: TK-10 renal
A549 NSCLC = system: A549 NSCLC
IGROV1 ovarian = system: IGROV1 ovarian
HCT-116 colon = system: HCT-116 colon
NCI-H23 lung = system: NCI-H23 lung
LXFL 529 NSCLC = system: LXFL 529 NSCLC
HCC-2998 colon = system: HCC-2998 colon
DMS 114 small cell lung = system: DMS 114 small cell lung
SK-OV-3 ovarian = system: SK-OV-3 ovarian
HL-60(TB) leukemia = system: HL-60(TB) leukemia
UO-31 renal = system: UO-31 renal
NCI-H226 lung = system: NCI-H226 lung
NCI-H522 lung = system: NCI-H522 lung
M14 melanoma = system: M14 melanoma
MOLT-4 leukemia = system: MOLT-4 leukemia

Measured: TGI

C=CC[C@H]1C[C@@]2(C)OC[C@H](C(C)C)N2C1=O
> 100 µM: HOP-92 NSCLC | ACHN renal | SK-MEL-28 melanoma | M19-MEL melanoma | A498 renal | SF-268 CNS | SK-MEL-5 melanoma | MALME-3M melanoma | SNB-19 CNS | SK-MEL-2 melanoma | RPMI-8226 leukemia | RXF 393 renal | HOP-62 NSCLC | U251 CNS | CCRF-CEM leukemia | CAKI-1 renal | KM12 colon | K-562 leukemia | XF 498 CNS | SF-295 CNS | OVCAR-4 ovarian | 786-0 renal | LOX IMVI melanoma | UACC-62 melanoma | SNB-78 CNS | OVCAR-5 ovarian | HCT-15 colon | DMS 273 small cell lung | KM20L2 colon | OVCAR-3 ovarian | EKVX NSCLC | SNB-75 CNS | SR leukemia | OVCAR-8 ovarian | SN12C renal | HT29 colon | SW-620 colon | HOP-18 NSCLC | UACC-257 melanoma | NCI-H460 lung | COLO 205 colon | SF-539 CNS | TK-10 renal | A549 NSCLC | IGROV1 ovarian | HCT-116 colon | NCI-H23 lung

c1nc2cscc2c2cscc12
> 100 µM: HOP-92 NSCLC | ACHN renal | SK-MEL-28 melanoma | M19-MEL melanoma | LXFL 529 NSCLC | A498 renal | SF-268 CNS | HCC-2998 colon | MALME-3M melanoma | SNB-19 CNS | SK-MEL-2 melanoma | RPMI-8226 leukemia | RXF 393 renal | HOP-62 NSCLC | U251 CNS | CCRF-CEM leukemia | CAKI-1 renal | DMS 114 small cell lung | KM12 colon | K-562 leukemia | XF 498 CNS | SF-295 CNS | OVCAR-4 ovarian | 786-0 renal | SK-OV-3 ovarian | LOX IMVI melanoma | UACC-62 melanoma | SNB-78 CNS | OVCAR-5 ovarian | HCT-15 colon | DMS 273 small cell lung | HL-60(TB) leukemia | OVCAR-3 ovarian | SR leukemia | OVCAR-8 ovarian | SN12C renal | HT29 colon | UO-31 renal | SW-620 colon | NCI-H226 lung | UACC-257 melanoma | NCI-H522 lung | NCI-H460 lung | M14 melanoma | SF-539 CNS | TK-10 renal | A549 NSCLC | IGROV1 ovarian | HCT-116 colon | NCI-H23 lung | MOLT-4 leukemia
